In general, IC50 refers to the concentration at which inhibition is half-maximal.

This passage reports IC50 results from patent publication US8426437B2, “Pyrroloquinoline derivatives and their use as protein kinases inhibitors” (Pierre Fabre Medicament, priority 2005, dated 2013).

The assay deals with T1, RET (Homo sapiens, UniProt P07949).
T1 construct: purchased Upstate 14-570MG
T1 sequence (P07949 29-1114): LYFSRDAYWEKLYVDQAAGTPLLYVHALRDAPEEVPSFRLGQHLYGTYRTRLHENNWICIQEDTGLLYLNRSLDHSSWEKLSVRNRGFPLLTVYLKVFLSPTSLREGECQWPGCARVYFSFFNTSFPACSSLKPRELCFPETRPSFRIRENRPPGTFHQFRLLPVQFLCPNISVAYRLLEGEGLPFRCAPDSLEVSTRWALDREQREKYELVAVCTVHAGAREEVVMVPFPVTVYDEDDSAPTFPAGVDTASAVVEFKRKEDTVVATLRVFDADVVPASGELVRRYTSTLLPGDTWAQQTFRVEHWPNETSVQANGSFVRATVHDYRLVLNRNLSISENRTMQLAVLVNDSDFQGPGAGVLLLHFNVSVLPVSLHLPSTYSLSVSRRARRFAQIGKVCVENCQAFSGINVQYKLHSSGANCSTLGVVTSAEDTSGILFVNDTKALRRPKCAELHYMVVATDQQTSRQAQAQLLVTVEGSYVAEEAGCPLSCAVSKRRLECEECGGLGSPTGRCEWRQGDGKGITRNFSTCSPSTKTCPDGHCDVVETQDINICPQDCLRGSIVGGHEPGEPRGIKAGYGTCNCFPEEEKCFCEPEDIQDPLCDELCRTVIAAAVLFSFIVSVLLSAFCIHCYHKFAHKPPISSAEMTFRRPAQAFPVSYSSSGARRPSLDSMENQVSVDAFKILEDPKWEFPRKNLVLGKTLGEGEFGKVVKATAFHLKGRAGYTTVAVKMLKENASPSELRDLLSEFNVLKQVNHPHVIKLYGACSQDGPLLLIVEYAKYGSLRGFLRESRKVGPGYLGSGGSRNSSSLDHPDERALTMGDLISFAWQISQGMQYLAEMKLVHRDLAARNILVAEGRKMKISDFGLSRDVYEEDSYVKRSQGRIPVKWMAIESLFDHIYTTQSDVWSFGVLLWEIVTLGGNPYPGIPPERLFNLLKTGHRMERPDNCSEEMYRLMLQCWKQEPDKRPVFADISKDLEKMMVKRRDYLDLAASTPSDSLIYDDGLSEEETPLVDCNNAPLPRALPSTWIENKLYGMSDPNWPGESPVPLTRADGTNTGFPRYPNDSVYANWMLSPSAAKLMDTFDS
Kind of assay: Inhibition of RET kinase activity, recombinant RET method (Kinase-Glo). The class given is biochemical. The settings on record: RET 2 μg/ml, poly-EY4 substrate, 20 μM ATP, two hours at 30° C. Here is the method: The inhibition of the kinase activity of the compounds of the invention is assessed by measuring their IC50 on RET.
where: • Y is the value of the luminescence • X is the logarithm of the concentration of the compound • Bottom is the minimum Y value • Top is the maximum Y value • LogIC50 is the value of X when Y is 50% from Top—Bottom.
The quantity of RET required is 2 μg/ml.
The following buffer is used for dilution of RET: 20 mM MOPS/NaOH pH7.0, 1 mM EDTA, 5% glycerol, 0.01% Brij35 (Sigma B4184), 0.1% 2-mercaptoethanol, 1 mg/ml BSA (Sigma A3059-10G).
The dilution of the compounds of the invention is distributed so as to obtain a scale of final concentrations between 10 nM and 30 μM.
After incubation of the reaction mixture for two hours at 30° C., the level of ATP that remains is assayed using the Kinase-Glo Luminescent Kinase Assay (Promega #V6712) according to the conditions recommended by the supplier. The luminescence induced is read in a plate reader (Envision-Perkin Elmer).
Consider `CCOC(=O)c1c[nH]c2c(=O)[nH]c3ccc(S(=O)(=O)Nc4ccc(N)cc4)cc3c12` [Compound 20, 8-(4-Aminophenylsulfamoyl)-4-oxo-4,5-dihydro-3H-pyrrolo[2,3-c]quinoline-1-ethyl carboxylate], for which the concentration for half-maximal inhibition (IC50) was less than 100 nM.

In the case of `CCOC(=O)c1c[nH]c2c(=O)[nH]c3ccc(S(=O)(=O)N4CCc5ccccc54)cc3c12` [Compound 21, 8-(2,3-Dihydro-indole-1-sulfonyl)-4-oxo-4,5-dihydro-3H-pyrrolo[2,3-c]quinoline-1-ethyl carboxylate], the IC50 was 100 to 1000 nM.

`CCOC(=O)c1c[nH]c2c(=O)[nH]c3ccc(S(=O)(=O)Nc4ccc(N5CCOCC5)cc4)cc3c12` [Compound 22, 8-(4-Morpholin-4-yl-phenylsulfamoyl)-4-oxo-4,5-dihydro-3H-pyrrolo[2,3-c]quinoline-1-ethyl carboxylate]: the IC50 lay in the range of 10000 to 100000 nM. For the molecule `CCOC(=O)c1c[nH]c2c(=O)[nH]c3ccc(S(=O)(=O)Nc4cccnc4)cc3c12` [Compound 23, 4-Oxo-8-(pyridin-3-ylsulfamoyl)-4,5-dihydro-3H-pyrrolo[2,3-c]quinoline-1-ethyl carboxylate], the 50% inhibitory concentration (IC50) is 100 to 1000 nM. Then `CCOC(=O)c1c[nH]c2c(=O)[nH]c3ccc(S(=O)(=O)N(C)Cc4ccccc4)cc3c12` [Compound 24, 8-(Benzyl-methyl-sulfamoyl)-4-oxo-4,5-dihydro-3H-pyrrolo[2,3-c]quinoline-1-ethyl carboxylate], with 100 to 1000 nM. With `CCOC(=O)c1c[nH]c2c(=O)[nH]c3ccc(S(=O)(=O)N(C)CCc4ccccc4)cc3c12` [Compound 25, 8-(Methyl-phenethyl-sulfamoyl)-4-oxo-4,5-dihydro-3H-pyrrolo[2,3-c]quinoline-1-ethyl carboxylate] the figure was 1000 to 10000 nM; with `CCOC(=O)c1c[nH]c2c(=O)[nH]c3ccc(S(=O)(=O)N(C)C)cc3c12` [Compound 26, 8-Dimethylsulfamoyl-4-oxo-4,5-dihydro-3H-pyrrolo[2,3-c]quinoline-1-ethyl carboxylate], 100 to 1000 nM. Then `CCOC(=O)c1c[nH]c2c(=O)[nH]c3ccc(S(=O)(=O)NC)cc3c12` [Compound 27, 8-Methylsulfamoyl-4-oxo-4,5-dihydro-3H-pyrrolo[2,3-c]quinoline-1-ethyl carboxylate], with 100 to 1000 nM; and `CCOC(=O)c1c[nH]c2c(=O)[nH]c3ccc(S(=O)(=O)N4CCOCC4)cc3c12` [Compound 28, 8-(Morpholine-4-sulfonyl)-4-oxo-4,5-dihydro-3H-pyrrolo[2,3-c]quinoline-1-ethyl carboxylate], with 100 to 1000 nM.

On to `CCOC(=O)CCNS(=O)(=O)c1ccc2[nH]c(=O)c3[nH]cc(C(=O)OCC)c3c2c1` [Compound 29, 8-(2-Ethoxycarbonyl-ethylsulfamoyl)-4-oxo-4,5-dihydro-3H-pyrrolo[2,3-c]quinoline-1-ethyl carboxylate], for which the IC50 was 1000 to 10000 nM. Then `CCOC(=O)c1c[nH]c2c(=O)[nH]c3ccc(S(=O)(=O)NC4CCCCC4)cc3c12` [Compound 30, 8-Cyclohexylsulfamoyl-4-oxo-4,5-dihydro-3H-pyrrolo[2,3-c]quinoline-1-ethyl carboxylate], with 100 to 1000 nM; and `CCOC(=O)c1c[nH]c2c(=O)[nH]c3ccc(S(=O)(=O)NC4CCCCCC4)cc3c12` [Compound 31, 8-Cycloheptylsulfamoyl-4-oxo-4,5-dihydro-3H-pyrrolo[2,3-c]quinoline-1-ethyl carboxylate], with 100 to 1000 nM. For the molecule `CCOC(=O)c1c[nH]c2c(=O)[nH]c3ccc(S(=O)(=O)Cc4ccccc4)cc3c12` [Compound 35, 4-Oxo-8-phenylmethanesulfonyl-4,5-dihydro-3H-pyrrolo[2,3-c]quinoline-1-ethyl carboxylate], the half-maximal inhibitory concentration (IC50) is less than 100 nM.

Regarding `CCOC(=O)c1c[nH]c2c(=O)[nH]c3ccc(S(=O)(=O)Cc4c(Cl)cccc4Cl)cc3c12` [Compound 36, 8-(2,6-Dichlorophenylmethanesulfonyl)-4-oxo-4,5-dihydro-3H-pyrrolo[2,3-c]quinoline-1-ethyl carboxylate], the IC50 was in the range of 100 to 1000 nM. Regarding `CCOC(=O)c1c[nH]c2c(=O)[nH]c3ccc(NS(C)(=O)=O)cc3c12` [Compound 38, 8-Methanesulfonylamino-4-oxo-4,5-dihydro-3H-pyrrolo[2,3-c]quinoline-1-ethyl carboxylate], the IC50 is 100 to 1000 nM. On to `CCOC(=O)c1c[nH]c2c(=O)[nH]c3ccc(NS(=O)(=O)Cc4ccccc4)cc3c12` [Compound 39, 4-Oxo-8-phenylmethanesulfonylamino-4,5-dihydro-3H-pyrrolo[2,3-c]quinoline-1-ethyl carboxylate], for which the IC50 is 100 to 1000 nM.

For `CCOC(=O)c1c[nH]c2c(=O)[nH]c3ccc(NS(=O)(=O)c4ccc(Cl)cc4)cc3c12` [Compound 40, 8-(4-Chloro-benzenesulfonylamino)-4-oxo-4,5-dihydro-3H-pyrrolo[2,3-c]quinoline-1-ethyl carboxylate], the IC50 lay in the range of 100 to 1000 nM. As to `CCOC(=O)c1c[nH]c2c(=O)[nH]c3ccc(NS(=O)(=O)c4cccc(Cl)c4)cc3c12` [Compound 41, 8-(3-Chloro-benzenesulfonylamino)-4-oxo-4,5-dihydro-3H-pyrrolo[2,3-c]quinoline-1-ethyl carboxylate], the half-inhibitory concentration (IC50) is 100 to 1000 nM. With `CCOC(=O)c1c[nH]c2c(=O)[nH]c3ccc(NS(=O)(=O)c4ccccc4Cl)cc3c12` [Compound 42, 8-(2-Chloro-benzenesulfonylamino)-4-oxo-4,5-dihydro-3H-pyrrolo[2,3-c]quinoline-1-ethyl carboxylate] the figure was 10000 to 100000 nM; with `CCOC(=O)c1c[nH]c2c(=O)[nH]c3ccc(NS(=O)(=O)c4ccc(Br)cc4)cc3c12` [Compound 46, 8-(4-Bromo-benzenesulfonylamino)-4-oxo-4,5-dihydro-3H-pyrrolo[2,3-c]quinoline-1-ethyl carboxylate], 100 to 1000 nM; with `CCOC(=O)c1c[nH]c2c(=O)[nH]c3ccc(NS(=O)(=O)c4ccc(C)cc4)cc3c12` [Compound 47, 4-Oxo-8-(4-toluenesulfonylamino)-4,5-dihydro-3H-pyrrolo[2,3-c]quinoline-1-ethyl carboxylate], 100 to 1000 nM. For `CCOC(=O)c1c[nH]c2c(=O)[nH]c3ccc(NS(=O)(=O)c4cccc(C)c4)cc3c12` [Compound 48, 4-Oxo-8-(3-toluenesulfonylamino)-4,5-dihydro-3H-pyrrolo[2,3-c]quinoline-1-ethyl carboxylate], the concentration for half-maximal inhibition (IC50) was in the range of 10000 to 100000 nM. Take `CCOC(=O)c1c[nH]c2c(=O)[nH]c3ccc(NS(=O)(=O)c4ccc(OC)cc4)cc3c12` [Compound 50, 8-(4-Methoxy-benzenesulfonylamino)-4-oxo-4,5-dihydro-3H-pyrrolo[2,3-c]quinoline-1-ethyl carboxylate]: the half-inhibitory concentration (IC50) fell in the range of 1000 to 10000 nM. With `CCOC(=O)c1c[nH]c2c(=O)[nH]c3ccc(NS(=O)(=O)c4cccc(OC)c4)cc3c12` [Compound 51, 8-(3-Methoxy-benzenesulfonylamino)-4-oxo-4,5-dihydro-3H-pyrrolo[2,3-c]quinoline-1-ethyl carboxylate] the figure was 1000 to 10000 nM; with `CCOC(=O)c1c[nH]c2c(=O)[nH]c3ccc(NS(=O)(=O)c4ccc(NC(C)=O)cc4)cc3c12` [Compound 52, 8-(4-Acetylamino-benzenesulfonylamino)-4-oxo-4,5-dihydro-3H-pyrrolo[2,3-c]quinoline-1-ethyl carboxylate], 1000 to 10000 nM; with `CCOC(=O)c1c[nH]c2c(=O)[nH]c3ccc(NS(=O)(=O)c4ccc([N+](=O)[O-])cc4)cc3c12` [Compound 53, 8-(4-Nitro-benzenesulfonylamino)-4-oxo-4,5-dihydro-3H-pyrrolo[2,3-c]quinoline-1-ethyl carboxylate], 100 to 1000 nM. Turning to `CCOC(=O)c1c[nH]c2c(=O)[nH]c3ccc(NS(=O)(=O)c4ccc5ccccc5c4)cc3c12` [Compound 54, 8-(Naphthalene-2-sulfonylamino)-4-oxo-4,5-dihydro-3H-pyrrolo[2,3-c]quinoline-1-ethyl carboxylate], the half-inhibitory concentration (IC50) was 10000 to 100000 nM. Regarding `CCOC(=O)c1c[nH]c2c(=O)[nH]c3ccc(NS(=O)(=O)c4ccc(C(C)=O)cc4)cc3c12` [Compound 55, 8-(4-Acetyl-benzenesulfonylamino)-4-oxo-4,5-dihydro-3H-pyrrolo[2,3-c]quinoline-1-ethyl carboxylate], the IC50 lay in the range of 1000 to 10000 nM. With `CCOC(=O)c1c[nH]c2c(=O)[nH]c3ccc(NS(=O)(=O)c4ccc(Cl)s4)cc3c12` [Compound 57, 8-(5-Chloro-thiophene-2-sulfonylamino)-4-oxo-4,5-dihydro-3H-pyrrolo[2,3-c]quinoline-1-ethyl carboxylate] the figure was 100 to 1000 nM. Then `CCOC(=O)c1c[nH]c2c(=O)[nH]c3ccc(N(C)S(C)(=O)=O)cc3c12` [Compound 59, 8-(Methanesulfonyl-methyl-amino)-4-oxo-4,5-dihydro-3H-pyrrolo[2,3-c]quinoline-1-ethyl carboxylate], with 100 to 1000 nM. Turning to `CCOC(=O)c1c[nH]c2c(=O)[nH]c3ccc(NC(=O)c4ccccc4)cc3c12` [Compound 60, 8-Benzoylamino-4-oxo-4,5-dihydro-3H-pyrrolo[2,3-c]quinoline-1-ethyl carboxylate], the IC50 is 1000 to 10000 nM. Then `CCOC(=O)c1c[nH]c2c(=O)[nH]c3ccc(NC(C)=O)cc3c12` [Compound 61, 8-Acetylamino-4-oxo-4,5-dihydro-3H-pyrrolo[2,3-c]quinoline-1 ethyl carboxylate], with 1000 to 10000 nM.
